What was measured:
rat pulmonary artery = assay: Rat pulmonary artery ring relaxation (endogenous tetrahydrobiopterin present); details: rat pulmonary artery, normal or DAHP-treated
Protocol: Rings (5 mm long) of rat pulmonary artery and aorta, were supported on a pair of intraluminal wires at 1 gm tension for one hour and then contracted with their EC50 phenylephrine concentration, which for pulmonary artery was 3.6×10^−8 M (derived from preliminary experiments) and for aorta was 11.8×10^−8 M (from the previously published literature). The rings were then relaxed with carbachol (10 μM). If the relaxation to carbachol was >75%, then the tissues were used to generate dose responses by addition of tetrahydrobiopterin (BH4) or the analogues. Stock BH4 was stored at −20° C. and the dilutions were prepared using saline just before adding the drug into the bath. Solutions of analogues were stored at 4° C. Cumulatively increasing concentrations of the analogues were added to the bath and the extent of relaxation was measured when it had stabilised. Another ring from the same rat was treated in parallel with the solvent for the analogue. The solvent used was NH4OH. The results are shown graphically in FIGS. 1 and 2.

iNOS = biological target: T1, iNOS (Mus musculus, UniProt P29477); assay: Macrophage assay (iNOS), macrophages depleted of tetrahydrobiopterin by DAHP; type: cell-based; details: 72 h; tested at 1 microM in macrophages; P = promotes NOS activity; read-out: iNOS effect *H155
T1 construct: stimulated macrophages that produce iNOS; endogenous in cells; host or cells: primary mouse macrophages (from femur), LPS-stimulated, DAHP-treated
T1 sequence (P29477 whole entry): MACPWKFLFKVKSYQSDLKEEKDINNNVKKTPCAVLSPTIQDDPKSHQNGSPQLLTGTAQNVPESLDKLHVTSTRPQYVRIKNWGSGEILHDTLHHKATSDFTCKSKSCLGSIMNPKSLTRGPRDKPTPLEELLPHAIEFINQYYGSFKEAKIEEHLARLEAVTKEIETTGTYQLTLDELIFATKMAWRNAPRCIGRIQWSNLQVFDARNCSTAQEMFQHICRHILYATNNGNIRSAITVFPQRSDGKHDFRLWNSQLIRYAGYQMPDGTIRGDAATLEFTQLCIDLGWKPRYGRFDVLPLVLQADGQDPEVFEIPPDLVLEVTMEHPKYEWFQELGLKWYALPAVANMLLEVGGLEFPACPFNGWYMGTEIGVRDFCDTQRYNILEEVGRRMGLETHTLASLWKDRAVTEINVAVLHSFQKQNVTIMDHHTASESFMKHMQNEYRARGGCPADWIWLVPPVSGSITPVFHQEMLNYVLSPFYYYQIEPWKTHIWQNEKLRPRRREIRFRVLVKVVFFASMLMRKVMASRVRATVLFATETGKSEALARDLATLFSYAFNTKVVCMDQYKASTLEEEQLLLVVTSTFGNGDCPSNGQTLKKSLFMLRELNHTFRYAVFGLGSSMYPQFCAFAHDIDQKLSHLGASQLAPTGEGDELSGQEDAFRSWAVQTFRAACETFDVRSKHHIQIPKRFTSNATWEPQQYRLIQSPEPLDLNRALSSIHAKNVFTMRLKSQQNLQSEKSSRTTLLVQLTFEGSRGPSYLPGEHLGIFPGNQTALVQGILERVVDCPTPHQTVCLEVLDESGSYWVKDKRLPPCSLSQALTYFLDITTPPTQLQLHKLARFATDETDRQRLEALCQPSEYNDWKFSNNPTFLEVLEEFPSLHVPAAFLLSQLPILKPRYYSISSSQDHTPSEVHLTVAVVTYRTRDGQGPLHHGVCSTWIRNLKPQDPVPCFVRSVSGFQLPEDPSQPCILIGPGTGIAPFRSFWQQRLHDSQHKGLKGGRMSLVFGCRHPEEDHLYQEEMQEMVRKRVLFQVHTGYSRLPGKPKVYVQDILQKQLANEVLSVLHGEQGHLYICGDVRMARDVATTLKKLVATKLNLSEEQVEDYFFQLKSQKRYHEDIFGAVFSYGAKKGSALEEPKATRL
Protocol: This is a cell based assay with lipopolysaccharide stimulated macrophages in which nitric oxide is produced by the action of iNOS. Primary cultures of macrophage cells isolated from mouse femur were produced over a 7 day period. At this stage the cells were seeded into 96-well culture plates at a density of 2×10^5 cells per well. After further incubation for 24 hrs, the well media was changed and the relevant treatment was introduced. The cells were then incubated for a further 72 hrs before 50 μl was removed from each well and combined with 100 μl of Greiss reagent for NO2 determination. All treatments were performed in triplicate. In each plate, 3 wells were designated control i.e. media change only-no LPS. These samples represent basal NO2 output over 72 hrs. 3 wells were used for LPS (0.5 μg/ml) stimulation alone and 3 wells were used for LPS+0.05% DMSO. This DMSO concentration was present in all subsequent analogue treated wells. All analogues were tested at 1.0 and 10 μM. In another set of experiments, the assay was repeated with the inclusion of a step to deplete endogenous tetrahydrobiopterin as in the artery ring studies. DAHP pre-treatment was employed to deplete the macrophage cells of endogenous tetrahydrobiopterin. In these experiments, DAHP (10^−2 M) was added to the cells for 24 hrs prior to seeding into 96-well plates and for 24 hrs following the seeding procedure. Thereafter, DAHP was present throughout the analogue treatment period of 72 hrs. […] Macrophages were initially depleted of tetrahydrobiopterin by incubation with DAHP.

With `C[C@H](O)[C@H](O)[C@H]1CNc2nc(N)[nH]c(=O)c2N1` [tetrahydrobiopterin, reference compound] the “concentrations of tetrahydrobiopterin causing contraction” value (rat pulmonary artery) was “above 3 μM”.

Compound `Nc1nc2ncc(C=O)nc2c(=O)[nH]1` [wsg1003, 2-Amino-4-oxo-3,4-dihydro-pteridine-6-carbaldehyde] has an activation at 1 µM (iNOS) of 20 to 50%.

`CC1(C)Nc2nc(N)[nH]c(=O)c2N=C1CO` [wsg1004, 2-Amino-6-hydroxymethyl-7,7-dimethyl-7,8-dihydro-3H-pteridin-4-one] was tested, and the activation at 1 µM (iNOS) was 20 to 50%.

Compound `Nc1nc2ncc(C(=O)O)nc2c(=O)[nH]1` [wsg1005, 2-Amino-4-oxo-3,4-dihydro-pteridine-6-carboxylic acid] has an activation at 1 µM (iNOS) of 20 to 50%.

For `CCC1=Nc2c(nc(N)[nH]c2=O)NC1(C)C` [wsg1006, 2-Amino-6-ethyl-7,7-dimethyl-7,8-dihydro-3H-pteridin-4-one], the activation at 1 µM (iNOS) was 20 to 50%.

For `CC12CCCCC1=Nc1c(nc(N)[nH]c1=O)N2` (stereo not shown) [wsg1007, 2-Amino-9a-methyl-6,7,8,9,9a,10-hexahydro-3H-benzo[g]pteridin-4-one], the activation at 1 µM (iNOS) was 20 to 50%.

`CC12CCCC1(S(=O)(=O)O)Nc1c(nc(N)[nH]c1=O)N2` (stereo not shown) [wsg1008, 6-Amino-3a-methyl-8-oxo-1,2,3,3a,4,7,8,9-octahydro-4,5,7,9-tetraaza-cyclopenta[b]naphthalene-9a-sulfonic acid] was tested, and the activation at 1 µM (iNOS) was 20 to 50%.

Compound `Cc1nc2nc(N)[nH]c(=O)c2nc1C` [wsg1009, 2-Amino-6,7-dimethyl-3H-pteridin-4-one] has an activation at 1 µM (iNOS) of 20 to 50%.

`CC1Nc2nc(N)[nH]c(=O)c2NC1C` (stereo not shown) [wsg1010, 2-Amino-6,7-dimethyl-4-oxo-3,4,5,6,7,8-hexahydro-pteridin-5-ium Cl-] showed an activation at 1 µM (iNOS) of 20 to 50%.

With `CC1=Nc2c(nc(N)[nH]c2=O)NC1C` (stereo not shown) [wsg1011, 2-Amino-6,7-dimethyl-4-oxo-3,4,7,8-tetrahydro-pteridin-8-ium Cl-] the activation at 1 µM (iNOS) was 20 to 50%.

Compound `CC1(C)Nc2nc(N)[nH]c(=O)c2N=C1Cc1ccccc1` [wsg1012, 2-Amino-6-benzyl-7,7-dimethyl-7,8-dihydro-3H-pteridin-4-one] has an activation at 1 µM (iNOS) of 20 to 50%.

Compound `CCC1(CC)Nc2nc(N)[nH]c(=O)c2N=C1CO` [wsg1014, 2-Amino-7,7-diethyl-6-hydroxymethyl-7,8-dihydro-3H-pteridin-4-one] has an activation at 1 µM (iNOS) of less than 20%.

For `CC1(CCc2ccccc2)Nc2nc(N)[nH]c(=O)c2N=C1C=O` (stereo not shown) [wsg1016, 2-Amino-7-methyl-4-oxo-7-phenethyl-3,4,7,8-tetrahydro-pteridine-6-carbaldehyde], the activation at 1 µM (iNOS) was less than 20%.

`CC1(C)Nc2nc(N)[nH]c(=O)c2N=C1/C=C/c1ccc(Cl)cc1` [wsg1017, 2-Amino-6-[2-(4-chloro-phenyl)-vinyl]-7,7-dimethyl-7,8-dihydro-3H-pteridin-4-one] showed an activation at 1 µM (iNOS) greater than 50%.

With `CC1(CCc2ccccc2)Nc2nc(N)[nH]c(=O)c2N=C1CO` (stereo not shown) [wsg1018, 2-Amino-6-hydroxymethyl-7-methyl-7-phenethyl-7,8-dihydro-3H-pteridin-4-one] the activation at 1 µM (iNOS) was 20 to 50%.

`CC1=Nc2c(nc(N)[nH]c2=O)OC1(C)C` [wsg1019, 2-Amino-6,7,7-trimethyl-3,7-dihydro-pyrimido[4,5-b][1,4]oxazin-4-one] showed an activation at 1 µM (iNOS) of less than 20%.

— US20060194800A1, “Pteridine derivatives as nitric oxide synthase activators” (University of Strathclyde, priority 2005, published 2006)
